Broadly, the melting point is the temperature, or range, at which the solid turns liquid.

Read-outs that look alike come from different tables or passages of the source. Bounds are passed on as bounds.

Data set [1] deals with Escherichia coli NCTC 10418. Description: Agar plate multi-point inoculation, colour. The data set is classed as cell-based.
In data set [2] the test system is Klebsiella pneumoniae NCTC 9528. Nature of the data set: Agar plate multi-point inoculation, colour. The data set is classed as cell-based.
Data set [3] deals with Providencia rettgeri NCTC 7475. Nature of the data set: Agar plate multi-point inoculation, colour. Format: cell-based.
In data set [4] the test system is Enterobacter cloacae NCTC 11936. Description: Agar plate multi-point inoculation, colour. The data set is classed as cell-based.
The subject of data set [5] is Serratia marcescens NCTC 10211. Description: Agar plate multi-point inoculation, colour. Format: cell-based.
The test system of data set [6] is Salmonella typhimurium NCTC 74. Description: Agar plate multi-point inoculation, colour. Format: cell-based.
Data set [7] concerns Pseudomonas aeruginosa NCTC 10662. Nature of the data set: Agar plate multi-point inoculation, colour. The data set is classed as cell-based.
Data set [8] deals with Yersinia enterocolitica NCTC 11176. Nature of the data set: Agar plate multi-point inoculation, colour. The data set is classed as cell-based. As to conditions: Columbia agar, FAC 500 mg/L, substrate 300 mg/L, 37° C. 18 h in air.
The test system of data set [9] is Burkholderia cepacia NCTC 10931. Nature of the data set: Agar plate multi-point inoculation, colour. The data set is classed as cell-based. As to conditions: Columbia agar, FAC 500 mg/L, substrate 300 mg/L, 37° C. 18 h in air.
Data set [10] has as its system Acinetobacter baumannii NCTC 19606. Nature of the data set: Agar plate multi-point inoculation, colour. Format: cell-based.
For data set [11], the system named is Steptococcus pyogenes NCTC 8306. Nature of the data set: Agar plate multi-point inoculation, colour. The data set is classed as cell-based.
The test system of data set [12] is Staphylococcus aureus (MRSA) NCTC 11939. Nature of the data set: Agar plate multi-point inoculation, colour. As to conditions: Columbia agar, FAC 500 mg/L, substrate 300 mg/L, 37° C. 18 h in air. The data set is classed as cell-based.
Data set [13] deals with Staphylococcus aureus NCTC 6571. Description: Agar plate multi-point inoculation, colour. Format: cell-based.
The test system of data set [14] is Staphylococcus epidermidis NCTC 11047. Description: Agar plate multi-point inoculation, colour. The data set is classed as cell-based.
For data set [15], the system named is Listeria monocytogenes NCTC 11994. Description: Agar plate multi-point inoculation, colour. Format: cell-based.
For data set [16], the system named is Enterococcus faecium NCTC 7171. Nature of the data set: Agar plate multi-point inoculation, colour. The data set is classed as cell-based.
Data set [17] has as its system Enterococcus faecalis NCTC 775. Description: Agar plate multi-point inoculation, colour. Format: cell-based.
Data set [18] has as its system Bacillus subtilis NCTC 9372. Nature of the data set: Agar plate multi-point inoculation, colour. The data set is classed as cell-based.
Data set [19] relates to Candida albicans ATCC 90028. The data set is classed as cell-based. As to conditions: Columbia agar, FAC 500 mg/L, substrate 300 mg/L, 37° C. 18 h in air.
The subject of data set [20] is Candida glabrata NCPF 3943. Description: Agar plate multi-point inoculation, colour. Format: cell-based.
Data set [21] has as its system Gram-positive or Gram-negative strains. Description: Toxicity / growth of microorganisms on substrate agar plates. Format: cell-based. As to conditions: substrate 300 mg/L. The method, then: This compound was tested on agar plates by multi-point inoculation. The plates were made from Columbia agar (Oxoid, Basingstoke, UK) (100 ml) supplemented with ferric ammonium citrate (FAC) (50 mg). After the agar had been autoclaved (121° C.) and cooled to 50° C., a filter sterilized solution of the substrate (8) (30 mg) dissolved in N-methylpyrrolidone (NMP) (200 μL) was added, thus giving a substrate concentration of 300 mg/L. After pouring, the plates were inoculated with a range of microorganisms and incubated at 37° C. for 18 h in air (Table 1).
In the publication of Zincke and Fries, the authors reported that treatment of 1,4,6,7-tetrabromo-DHN (20) with tin (II) chloride led to the removal of the bromines in the 1 and 4 positions. Their work was repeated and the expected 6,7-dibromo-DHN (21) was obtained smoothly and in good yield (68%). 6,7-Dibromo-DHN (21) is isomeric with the 1,4-dibromo compound which had proven unsuccessful as an aglycone for the detection of microorganisms. Notwithstanding this latter fact, we proceeded to evaluate the properties of 6,7-dibromo-DHN […] as an aglycone for artificial chromogenic enzyme substrates. […]

The subject of a further data set is range of microorganisms. Nature of the data set: Agar plate evaluation with a range of microorganisms (hue, diffusion, background). The data set is classed as cell-based. As to conditions: for colour (hue) after hydrolysis: agar plates with FAC.
Data set [22] relates to Burkholderia cepacia 1222. Description: Agar plate multi-point inoculation, colour. Format: cell-based. As to conditions: Columbia agar, FAC 500 mg/L, substrate 300 mg/L, 37° C. 18 h in air.
Data set [23] has as its system Citrobacter freundii NCTC 9750 or 46262. Nature of the data set: Agar plate multi-point inoculation, colour. Format: cell-based. As to conditions: Columbia agar, FAC 500 mg/L, substrate 300 mg/L, 37° C. 18 h in air.
For data set [24], the system named is Morganella morganii 462403 (wild). Description: Agar plate multi-point inoculation, colour. Format: cell-based. As to conditions: Columbia agar, FAC 500 mg/L, substrate 300 mg/L, 37° C. 18 h in air.
The mark [25] stands for this setting: Columbia agar, FAC 500 mg/L, substrate 300 mg/L, 37° C. 18 h in air.

As for `OCC1OC(Oc2cc3ccccc3cc2O)C(O)C(O)C1O` [Compound 4, DHN-β-D-glucopyranoside], the melting point was > 210 °C (dec.). Also, the Colour result in data set [1] (setting [25]) was “Tr”. The Colour result in data set [2] (setting [25]) is given as “++”. The Colour entry in data set [3] (setting [25]) is recorded as “++”. In data set [4] (setting [25]), the Colour entry was “+”. The Colour entry in [5] (setting [25]) was “++”. In addition, the Colour result in [6] (setting [25]) is listed as “−”. Further, the Colour entry in data set [7] (setting [25]) is given as “−”. Moreover, the Colour entry in data set [8] was “−”. The Colour entry in data set [9] is “−”. In data set [10] (setting [25]), the Colour entry is reported as “−”. Besides, the Colour entry in [11] (setting [25]) is recorded as “−”. Moreover, the Colour entry in data set [12] is on record as “−”. Moreover, the Colour entry in data set [13] (setting [25]) is “−”. Further, in data set [14] (setting [25]), the Colour entry is on record as “−”. For the same compound, the Colour result in data set [15] (setting [25]) was “+”. Further, the Colour entry in data set [16] (setting [25]) is “+”. Further, the Colour entry in data set [17] (setting [25]) was “+”. Further, the Colour entry in [18] (setting [25]) is given as “+”. Moreover, the Colour result in data set [19] was “−”. The Colour result in data set [20] (setting [25]) was “−”.

As for `OCC1OC(Oc2cc3ccccc3cc2O)C(O)C(O)C1O` [Compound 8, DHN-β-D-galactopyranoside], the melting point was > 230 °C (dec.). The Colour entry in data set [1] (setting [25]) is listed as “++”. The Colour result in data set [2] (setting [25]) was “++”. Also, in data set [3] (setting [25]), the Colour result is listed as “−”. Besides, the Colour result in data set [4] (setting [25]) is “++”. Besides, the Colour result in [5] (setting [25]) is “+”. Further, the Colour entry in [6] (setting [25]) was “−”. In data set [7] (setting [25]), the Colour result is “−”. Further, in [8], the Colour result was “−”. Moreover, in data set [9], the Colour result was “−”. For the same compound, in data set [10] (setting [25]), the Colour entry is given as “−”. The Colour result in data set [11] (setting [25]) is “−”. Besides, the Colour entry in data set [12] is on record as “−”. Besides, the Colour result in data set [13] (setting [25]) is given as “−”. Besides, the Colour result in [14] (setting [25]) is “−”. Further, the Colour entry in [15] (setting [25]) is reported as “−”. The Colour result in data set [16] (setting [25]) was “Tr”. Besides, in [17] (setting [25]), the Colour entry is given as “−”. Further, the Colour entry in data set [18] (setting [25]) is “−”. The Colour result in [19] is “−”. Also, the Colour entry in data set [20] (setting [25]) is given as “−”. Moreover, in data set [21], the “toxicity to strains tested” value is recorded as “no obvious toxicity”. In addition, in the data set with range of microorganisms, the “colour (hue) after hydrolysis” value was “strong purple-maroon colour”. Further, in the data set on range of microorganisms (plates incubated under anaerobic conditions), the “formation of coloured chelate” value is “still formed”. The “sensitivity after autoclaving substrate in agar” value in the data set on range of microorganisms (substrate added prior to autoclaving, 121° C. for 20 minutes) was “no decrease in sensitivity”.

`CCCCCCCC(=O)Oc1cc2ccccc2cc1OC(=O)CCCCCCC` [Compound 16, DHN-dicaprylate]: the Colour result in data set [1] (setting [25]) is listed as “−”; in data set [2] (setting [25]), “−”; in data set [3] (setting [25]) it was “+”; in [4] (setting [25]) it was “−”; in [5] (setting [25]) it was “+”; in data set [6] (setting [25]), “−”. For the same compound, the Colour result in data set [7] (setting [25]) was “+”; in data set [8] it was “−”; in [9], “−”; in data set [10] (setting [25]) it was “+”; in data set [11] (setting [25]), “−”; in data set [12], “−”. The Colour result in data set [13] (setting [25]), in data set [14] (setting [25]), in data set [15] (setting [25]), in data set [16] (setting [25]), in data set [17] (setting [25]) and in data set [18] (setting [25]) was “−” in each case. Further, the Colour result in [19] and in data set [20] (setting [25]) was “−” throughout.

Take `O=P([O-])([O-])Oc1cc2ccccc2cc1O.[Na+].[Na+]` [Compound 17, DHN-phosphate Disodium Salt]: the Colour entry in data set [1] is “+/−”; in [2], “++”; in data set [3] it was “+”; in data set [4], “+/−”; in [5], “++”; in [6], “++”. The Colour result was “−” in [7]; “+/−” in data set [8]; “+/−” in data set [9]; “−” in data set [10]; “−” in [11]; “+” in data set [12]. For the same compound, the Colour entry is on record as “+” in [13]; “−” in data set [14]; “+” in data set [15]; “−” in [16]; “−” in data set [17]; “−” in [18]. Besides, the Colour entry in data set [19] and in [20] was “−” throughout.

Take `OC[C@H]1O[C@@H](Oc2cc3cc(Br)c(Br)cc3cc2O)C(O)C1O` (stereo partly drawn) [Compound 23, 6,7-Dibromo-DHN-β-D-ribofuranoside]: the Colour result is reported as “−” in [1] (setting [25]); “−” in [3] (setting [25]); “++” in data set [4] (setting [25]); “++” in data set [5] (setting [25]); “++” in data set [6] (setting [25]); “+” in data set [7] (setting [25]). The Colour result in data set [8], in [11] (setting [25]), in data set [12], in data set [13] (setting [25]), in [14] (setting [25]) and in data set [15] (setting [25]) was “−” in each case. Further, the Colour result is reported as “−” in data set [16] (setting [25]); “−” in data set [17] (setting [25]); “−” in [18] (setting [25]); “−” in data set [19]; “−” in [20] (setting [25]); “+/−” in data set [22]. Also, the Colour entry in [23] and in [24] was “++” throughout. In data set [21], the “growth of Gram-positive bacteria” value is “mainly suppressed”. In addition, the “colour (hue) after hydrolysis” value in the data set with range of microorganisms is “largely discrete red-brown or maroon colonies”.

Values taken from patent US9938562B2, “Naphthalene derived chromogenic enzyme substrates” (Glycosynth Limited, priority 2013, dated 2018).
